According to US7087619B2, “Method for the treatment of urinary incontinence” (Endo Pharmaceuticals, Inc., priority 1995, dated 2006):

Legend:
[1] = literature report; cited from earlier work
[2] = tested on: female Sprague-Dawley rats; experiment: Non-stop transvesical cystometrogram in urethane-anesthetized rats (continuous cystometry); type: in vivo
Protocol: Ten female Sprague-Dawley rats having a mean weight of 263±19 g were anesthetized with urethane (1.2 g/k, sc.). A midline incision was performed to expose the bladder and a 23G catheter was inserted into the bladder dome for the measurement of intravesical pressure. A non-stop transvesical cystometrogram, as described in J. Pharmacological. Methods, 15, pp. 157-167 (1986), was used, at a filling rate of 0.216 ml/min. of saline, to access the filling and voiding characteristics of the bladder. Through the continuous cystometry method thus afforded, consecutive micturition could be recorded. Dextromethorphan was given at intravenous does of: 1.0, 3.0, 10, 30, 50 mg/kg after the initial baseline micturition sequence was reliably measured for approximately 12 min. From these recordings the absolute values in maximum pressure obtained and the frequency of micturition was measured. A dose response curve illustrating the effect of dextromethorphan on the absolute micturition pressures in the range of 1-50 mg/kg is given in FIG. 1. Data given are mean and SE.

Row | SMILES | frequency in micturition [1] | volume evoked micturition reflex ([2]; increasing intravenous doses 1.0-50 mg/kg, cystometrogram, anesthetized rats) | reduction in detrusor pressure ([2]; intravenous 10 mg/kg) | frequency of micturition ([2]; intravenous 1-50 mg/kg, dose response, FIG. 2) | reduction in detrusor pressure ([2]; intravenous dose level of 3 mg/kg) | effect on detrusor pressure at high doses (initial increase before suppression) ([2]; intravenous doses higher than 10 mg/kg) | volume evoked micturition contractions ([2]; intravenous doses in the range of 10-30 mg/kg)
1 | C[C@]12N[C@H](Cc3ccccc31)c1ccccc12 [MK-801] | increase in frequency in micturition | – | – | – | – | – | –
2 | COc1ccc2c(c1)[C@@]13CCCC[C@H]1[C@@H](C2)N(C)CC3 [dextromethorphan, (+)-3-methoxy-N-methylmorphinan] | – | suppressed in a dose sensitive manner | 50% | decrements gradually with respect to dose | significant sustained reduction | bimodal, producing an initial increase in detrusor pressure before suppression | almost totally suppressed
